Measurements published in PubChem BioAssay AID200 (DTP/NCI, 2004).
Values joined by “and” are separate entries in the source; they are usually repeats but may differ in a detail not shown here. Equal entries are not always repeated. Inconclusive results and toxic doses are left out. Where a SMILES comes first, the peptide text is derived from it.

System: B6C3F1 mice, B16 melanoma ip, median survival T/C
Assay: NCI In Vivo Anticancer Drug Screen. Data for tumor model B16 Melanoma (intraperitoneal) in B6C3F1 mice
Details: endpoint: median survival time, higher = longer survival
Method in brief: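 Transplantable tumor in mice; treated vs vehicle control groups; survival or tumor size measured; value = T/C ratio.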

[1] = dose: 100.0 mg/kg/injection, schedule: Q01DX009 (ip), vehicle: Klucel (hydroxypropylcellulose) (HPC)
[2] = dose: 200.0 mg/kg/injection, schedule: Q01DX009 (ip), vehicle: Klucel (hydroxypropylcellulose) (HPC)
[3] = dose: 400.0 mg/kg/injection, schedule: Q01DX009 (ip), vehicle: Klucel (hydroxypropylcellulose) (HPC)
[4] = dose: 12.5 mg/kg/injection, schedule: Q01DX009 (ip), vehicle: saline
[5] = dose: 25.0 mg/kg/injection, schedule: Q01DX009 (ip), vehicle: saline
[6] = dose: 100.0 mg/kg/injection, schedule: Q01DX009 (ip), vehicle: saline
[7] = dose: 50.0 mg/kg/injection, schedule: Q01DX009 (ip), vehicle: saline with Tween-80
[8] = dose: 100.0 mg/kg/injection, schedule: Q01DX009 (ip), vehicle: saline with Tween-80
[9] = dose: 12.5 mg/kg/injection, schedule: Q01DX009 (ip), vehicle: suspension in saline
[10] = dose: 25.0 mg/kg/injection, schedule: Q01DX009 (ip), vehicle: suspension in saline
[11] = dose: 50.0 mg/kg/injection, schedule: Q01DX009 (ip), vehicle: suspension in saline
[12] = dose: 100.0 mg/kg/injection, schedule: Q01DX009 (ip), vehicle: suspension in saline
[13] = dose: 3.12 mg/kg/injection, schedule: Q01DX009 (ip), vehicle: saline with Tween-80
[14] = dose: 6.25 mg/kg/injection, schedule: Q01DX009 (ip), vehicle: saline with Tween-80
[15] = dose: 12.5 mg/kg/injection, schedule: Q01DX009 (ip), vehicle: saline with Tween-80
[16] = dose: 50.0 mg/kg/injection, schedule: Q01DX009 (ip), vehicle: saline
[17] = dose: 25.0 mg/kg/injection, schedule: Q01DX009 (ip), vehicle: Klucel (hydroxypropylcellulose) (HPC)
[18] = dose: 12.5 mg/kg/injection, schedule: Q01DX009 (ip), vehicle: Klucel (hydroxypropylcellulose) (HPC)
[19] = dose: 50.0 mg/kg/injection, schedule: Q01DX009 (ip), vehicle: Klucel (hydroxypropylcellulose) (HPC)
[20] = dose: 6.25 mg/kg/injection, schedule: Q01DX009 (ip), vehicle: saline

## CCCCC(NC(=O)CNC(=O)CNC(=O)OCc1ccccc1)C(=O)O (stereo not drawn) (HELM PEPTIDE1{[O=C(OCc1ccccc1)[*:2]].G.G.[CCCCC(N[*:1])C(=O)O]}$$$$V2.0)
[1]
  T/C: 102 % of control
[2]
  T/C: 105 % of control
[3]
  T/C: 96 % of control

## CN(CO)c1nc(N(C)CO)nc(N(C)CO)n1
[4]
  T/C: 113 % of control and 115 % of control
[5]
  T/C: 118 % of control
[6]
  T/C: 153 % of control and 190 % of control

## CCC1=C[C@H]2CN(CCc3c([nH]c4ccccc34)[C@@](OC(C)=O)(c3cc4c(cc3OC)N(C)[C@H]3[C@@](O)(C(=O)NCCSc5ccccc5)[C@H](O)[C@]5(CC)C=CCN6CC[C@]43[C@@H]65)C2)C1
dose: 0.25 mg/kg/injection, schedule: Q01DX009 (ip), vehicle: water
  T/C: 107 % of control
dose: 1.0 mg/kg/injection, schedule: Q01DX009 (ip), vehicle: water
  T/C: 118 % of control
dose: 2.0 mg/kg/injection, schedule: Q01DX009 (ip), vehicle: water
  T/C: 124 % of control

## CC(C)(C)OC(=O)NC(CO)C(=O)O (stereo not drawn)
[7]
  T/C: 95 % of control
[8]
  T/C: 95 % of control
dose: 200.0 mg/kg/injection, schedule: Q01DX009 (ip), vehicle: saline with Tween-80
  T/C: 90 % of control

## NC(=S)N/N=C/c1ccc(O)cn1
[9]
  T/C: 106 % of control
[10]
  T/C: 113 % of control
[11]
  T/C: 119 % of control
[12]
  T/C: 118 % of control

## O=C(CCCN1CCC(C(O)c2ccc(F)cc2)CC1)c1ccc(F)cc1 (stereo not drawn)
dose: 1.56 mg/kg/injection, schedule: Q01DX009 (ip), vehicle: saline with Tween-80
  T/C: 92 % of control
[13]
  T/C: 96 % of control
[14]
  T/C: 103 % of control
[15]
  T/C: 92 % of control

## CCC(C)C(NC(=O)CN)C(=O)O (stereo not drawn) (HELM PEPTIDE1{G.[CCC(C)C(N[*:1])C(=O)O]}$$$$V2.0)
[16]
  T/C: 92 % of control
[6]
  T/C: 92 % of control
dose: 200.0 mg/kg/injection, schedule: Q01DX009 (ip), vehicle: saline
  T/C: 92 % of control

## CC(C)CC(NC(=O)OCC1c2ccccc2-c2ccccc21)C(=O)O (stereo not drawn)
[17]
  T/C: 102 % of control
[1]
  T/C: 122 % of control and 101 % of control

## O=c1ssc(=Nc2ccccc2)n1-c1ccccc1
[18]
  T/C: 98 % of control
[17]
  T/C: 101 % of control
[19]
  T/C: 96 % of control
[1]
  T/C: 97 % of control
[2]
  T/C: 92 % of control
[3]
  T/C: 96 % of control

## CCC(C(=O)O)C(=O)O.[NH-]CC1CCCC[N-]1.[Pt+2]
[20]
  T/C: 108 % of control
[4]
  T/C: 102 % of control
[9]
  T/C: 113 % of control
[5]
  T/C: 101 % of control
[10]
  T/C: 115 % of control
[11]
  T/C: 123 % of control

## NC(=O)CC(NC(=O)OCC1c2ccccc2-c2ccccc21)C(=O)O (stereo not drawn)
[18]
  T/C: 116 % of control
[17]
  T/C: 107 % of control

## CS(=O)(=O)OCCN(CCOS(C)(=O)=O)c1ccc(C=O)cc1
[13]
  T/C: 151 % of control
[14]
  T/C: 162 % of control
[15]
  T/C: 186 % of control

## CCNC(=O)[B-][N+](C)(C)C
[18]
  T/C: 93 % of control
[17]
  T/C: 95 % of control

## C[PH+](C)C.C[PH+](C)C.[Au]
dose: 0.31 mg/kg/injection, schedule: Q01DX009 (ip), vehicle: Klucel (hydroxypropylcellulose) (HPC)
  T/C: 115 % of control
dose: 0.62 mg/kg/injection, schedule: Q01DX009 (ip), vehicle: Klucel (hydroxypropylcellulose) (HPC)
  T/C: 117 % of control
dose: 1.25 mg/kg/injection, schedule: Q01DX009 (ip), vehicle: Klucel (hydroxypropylcellulose) (HPC)
  T/C: 114 % of control
dose: 2.5 mg/kg/injection, schedule: Q01DX009 (ip), vehicle: Klucel (hydroxypropylcellulose) (HPC)
  T/C: 112 % of control

## CC1=CC(=NN=c2cc(C)n([O-])c(C)c2)C=C(C)[N+]1=O
[9]
  T/C: 91 % of control
dose: 25.0 mg/kg/injection, schedule: Q01DX009 (ip), vehicle: saline with Tween-80
  T/C: 107 % of control
[10]
  T/C: 99 % of control
[7]
  T/C: 123 % of control
[11]
  T/C: 95 % of control
[8]
  T/C: 121 % of control
[12]
  T/C: 108 % of control

## O=C(Nc1ccccc1)c1c(O)[nH]c(=S)[nH]c1=O
dose: 6.0 mg/kg/injection, schedule: Q01DX009 (ip), vehicle: saline with Tween-80
  T/C: 108 % of control
[15]
  T/C: 114 % of control and 115 % of control
dose: 44.0 mg/kg/injection, schedule: Q01DX009 (ip), vehicle: saline with Tween-80
  T/C: 153 % of control
dose: 56.0 mg/kg/injection, schedule: Q01DX009 (oral), vehicle: saline with Tween-80
  T/C: 111 % of control
dose: 67.0 mg/kg/injection, schedule: Q01DX009 (ip), vehicle: saline with Tween-80
  T/C: 161 % of control
dose: 83.0 mg/kg/injection, schedule: Q01DX009 (oral), vehicle: saline with Tween-80
  T/C: 117 % of control
dose: 100.0 mg/kg/injection, schedule: Q01DX005 (oral), vehicle: saline with Tween-80
  T/C: 110 % of control
dose: 124.0 mg/kg/injection, schedule: Q01DX009 (oral), vehicle: saline with Tween-80
  T/C: 114 % of control
dose: 149.0 mg/kg/injection, schedule: Q01DX005 (oral), vehicle: saline with Tween-80
  T/C: 118 % of control
dose: 185.0 mg/kg/injection, schedule: Q01DX009 (oral), vehicle: saline with Tween-80
  T/C: 121 % of control
dose: 223.0 mg/kg/injection, schedule: Q01DX005 (oral), vehicle: saline with Tween-80
  T/C: 114 % of control
dose: 333.0 mg/kg/injection, schedule: Q01DX005 (oral), vehicle: saline with Tween-80
  T/C: 116 % of control

## CC(C)CC(C(=O)O)N(C)C(=O)OC(C)(C)C (stereo not drawn)
[1]
  T/C: 101 % of control
[2]
  T/C: 90 % of control

## CN(C)C(=O)SC1=C(c2c(Cl)cccc2Cl)C(=O)c2ccccc21
[17]
  T/C: 98 % of control
[19]
  T/C: 96 % of control
[1]
  T/C: 101 % of control
[2]
  T/C: 101 % of control

## COc1ccc([C@@]23Oc4cc(OC)cc(OC)c4[C@]2(O)[C@H](O)[C@H](C(=O)N(C)C)[C@H]3c2ccccc2)cc1
dose: 0.25 mg/kg/injection, schedule: Q01DX009 (ip), vehicle: Klucel (hydroxypropylcellulose) (HPC)
  T/C: 97 % of control
dose: 0.5 mg/kg/injection, schedule: Q01DX009 (ip), vehicle: Klucel (hydroxypropylcellulose) (HPC)
  T/C: 119 % of control and 91 % of control and 106 % of control
dose: 1.0 mg/kg/injection, schedule: Q01DX009 (ip), vehicle: Klucel (hydroxypropylcellulose) (HPC)
  T/C: 112 % of control and 117 % of control
dose: 2.0 mg/kg/injection, schedule: Q01DX009 (ip), vehicle: Klucel (hydroxypropylcellulose) (HPC)
  T/C: 103 % of control and 104 % of control and 106 % of control

## S=C1CCCCN1
dose: 25.0 mg/kg/injection, schedule: Q01DX009 (ip), vehicle: distilled water + alcohol
  T/C: 107 % of control
dose: 50.0 mg/kg/injection, schedule: Q01DX009 (ip), vehicle: distilled water + alcohol
  T/C: 98 % of control
dose: 100.0 mg/kg/injection, schedule: Q01DX009 (ip), vehicle: distilled water + alcohol
  T/C: 107 % of control
dose: 200.0 mg/kg/injection, schedule: Q01DX009 (ip), vehicle: distilled water + alcohol
  T/C: 101 % of control

## CCN(CC)CCNc1ccc(C)c2sc3ccccc3c(=O)c12
[20]
  T/C: 103 % of control
[4]
  T/C: 100 % of control
[5]
  T/C: 104 % of control
[16]
  T/C: 104 % of control
[6]
  T/C: 118 % of control

## COC(=O)[C@@]12OC[C@]34[C@H]([C@@H](O)[C@@H]1O)[C@@]1(C)CC(=O)C(OC(=O)CC(=O)OC5=C(C)[C@@H]6C[C@H]7OC(=O)[C@H](OC(=O)/C=C(\C)C(C)C)[C@H]8[C@]9(C(=O)OC)OC[C@]78[C@H]([C@@H](O)[C@@H]9O)[C@@]6(C)CC5=O)=C(C)[C@@H]1C[C@H]3OC(=O)[C@H](OC(=O)/C=C(\C)C(C)C)[C@@H]24
dose: 1.5 mg/kg/injection, schedule: Q01DX009 (ip), vehicle: saline + Tween-80 + alcohol
  T/C: 154 % of control

## O=c1[nH]cnc2n[nH]nc12
[18]
  T/C: 107 % of control
[17]
  T/C: 97 % of control
[19]
  T/C: 92 % of control
[1]
  T/C: 90 % of control
[2]
  T/C: 97 % of control
[3]
  T/C: 90 % of control
